Measurements published in US20230149732A1, “COMBINED NITRITE AND LIGHT TREATMENT TO PREVENT DEVICE THROMBOSIS” (Wake Forest University Health Sciences, priority 2021, published 2023).
Read-outs that look alike come from different tables or passages of the source.

Columns and labels:
[1] = target: oxygenated Hb (OxyHb) (Homo sapiens, UniProt P68871+P69905); conditions: NO + HbO2; cited from earlier work
[2] = tested on: platelet activation; assay: Inhibition of platelet activation, with or without RBCs (flow cytometry); assay type: cell-based; conditions: for effect on nitrite-mediated inhibition of platelet activation by RBCs: NO scavenger or RBC surface thiol blocker added
Source text: This disclosure also teaches that far-red and near infrared light dramatically enhance nitrite bioactivation by RBCs. Far-red light (about 600-750 nm) and near infrared light (about 700-1400 nm) have been used clinically for improved wound healing, tissue generation, reduction of inflammation, and increasing cerebral blood flow to improve cognition. The mechanism for these actions has been attributed generally to increased blood flow, tissue oxygenation, and angiogenesis secondary to improved mitochondrial function attributed to cytochrome c oxidase redox state and function. However, it was not clear how improvement in cytochrome c oxidation state could account for increased blood flow and other effects of infrared/far-red light. […] The data shown in FIG. 2 strongly supports this premise (note scales). Previous work using inhibition of platelet activation as a measure of nitrite bioactivation has shown that (i) RBCs are necessary for nitrite-mediated inhibition of platelet activation (while other NO donors' ability to inhibit platelet activation is blunted by the presence of RBCs), (ii) this action is abrogated by an NO scavenger, (iii) this action is achieved with plasma levels of nitrite easily attained through dietary nitrate interventions, and (iv) this action involves RBC surface thiols. […] This is attributed to accumulating steady state NO species on the surface of the RBCs. The effects of far-red light without nitrite treatment are small and variable, perhaps reflecting small amounts of nitrite present at steady state and varying between individuals due to diet and other factors.
Nitrite addition to activated platelets in the absence of RBCs has no effect (FIG. 2A—note scale is expanded). […] This interaction is depicted in FIG. 1. It has been shown that Hb is the primary erythrocytic nitrite reductase and that nitrite bioactivation by RBCs involves NO. […] Nitrite is the best suited NO donor for treating thrombosis as it requires the presence of RBCs to work while others efficacy is blunted by RBCs (via the reaction described in Equation 2).
where the ferric hemin reversibly binds NO, GSH reduces the hemin and forms a thiyl radical which then reacts with NO, similar to a mechanism proposed for DNIC formation. The formation of the thiyl radical is supported by lower GSNO yield when the thiyl radical trap 5,5-dimethyl-1-pyrroline N-oxide (DMPO) is added (FIG. 4D). Thus, this system of hemin, NO and thiol (all present in the RBC after nitrite addition) yield both species of interest: nitrosothiols and heme-nitrosyls (which can bind to a surface thiol). Studies using RBCs. […] This inhibition was abrogated by pre-treatment with the thiol binding agent N-ethyl maleimide (NEM) (FIG. 5).

[3] = tested on: platelet adhesion; conditions: dual treatment: nitrite plus far-red light
Source text: (§1) Also disclosed herein is a mechanism though which […] potentiates the anti-thrombotic effects of far-red light. […] The effects of combining far-red light and nitrite in inhibiting several different measures of clotting using different agonists are disclosed herein.

[4] = tested on: clotting in blood; conditions: TEG, RBCs present
Experimental: (§2) The effects of nitrite and light on reducing clotting in blood were conducted by comparing sham, light alone, nitrite alone and the combination.

[5] = tested on: device thrombosis in extracorporeal circuit
Source text: Two Mito MD LED sources were employed with the tubing sandwiched in between. The power of the LEDs is reported as 100 mW/cm^2 at 6 inches from the device and we measured 35 mW/cm^2 at this distance and 230 mW/cm^2 directly at the surface. […] The system was also maintained at the desired temperature using a circulating water bath attached to the oxygenator representative of use conditions. The blood was deoxygenated by flowing nitrogen through the oxygenator to mimic venous blood from a real patient and hemoglobin saturation was about 70% or so, as tested using absorption spectroscopy and our integrating sphere detector for turbid samples.
Disclosed herein are outcome measures to test the efficacy of the device, including: • (1) Patency of the device. Whether enough clotting will occur to impede flow enough so that the experiment needs to be stopped before six hours of testing. The time to stopping was recorded. • (2) Pressure as a function of time. The pressure in the circuit was recorded every 15 minutes with higher pressures indicating occlusive clotting. • (3) Visual inspection for clotting. Tubing was examined thoroughly every 15 minutes with flashlights and photographs were taken to record the size and number of visual clots. • (4) Blood aliquots were collected every 15 minutes to measure oxygenation state of hemoglobin (so the nitrogen flow can be adjusted). A spectrometer was used with an integrating sphere that collected scattered light to get true absorption of turbid samples. […] RBCS were sedimented and hemoglobin concentration in the supernatant determined by absorption spectroscopy. • (7) Platelet count was assessed as part of a complete blood count. Platelet count goes down as platelets adhere and aggregate in the system.
In addition, nitrite was measured to assess the effective dose that a patient may encounter. […] For all experiments, the same blood was used for control and treatment and the same amount of calcium infused at the same timepoints.
The system was tested by comparing treatment to control in terms of patency, platelet count, and platelet activation.

[6] = target: T1, partially deoxygenated hemoglobin (Homo sapiens, UniProt P68871+P69905); conditions: hemoglobin 10 mM (in heme) in blood, pseudo first order
T1 sequence (P69905 2-142 limits assumed): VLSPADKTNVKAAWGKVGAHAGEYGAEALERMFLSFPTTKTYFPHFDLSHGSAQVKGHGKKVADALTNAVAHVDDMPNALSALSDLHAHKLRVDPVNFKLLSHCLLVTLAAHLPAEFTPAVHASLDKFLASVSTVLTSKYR
T1 sequence (P68871 2-147 limits assumed): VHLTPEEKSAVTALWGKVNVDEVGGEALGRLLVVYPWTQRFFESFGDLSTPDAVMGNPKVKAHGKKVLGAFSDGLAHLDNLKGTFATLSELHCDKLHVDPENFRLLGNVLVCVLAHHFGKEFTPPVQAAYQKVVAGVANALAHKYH
Experimental: In addition, nitrite was measured to assess the effective dose that a patient may encounter. […] For all experiments, the same blood was used for control and treatment and the same amount of calcium infused at the same timepoints. For the example shown in FIG. 11A, no calcium was infused. […] For the example shown in FIG. 11B, calcium additions was added at the 1.5 hour mark and at each of the next two 0.5 hour intervals (1.5 mM; 0.75 mM; and 0.375 mM).

[7] = tested on: clotting
Experimental: as §1, §2

[8] = target: T1, partially deoxygenated hemoglobin; conditions: cited from earlier work
[9] = tested on: deoxygenated RBCs; assay: Heme nitrosyl export from deoxygenated RBCs incubated with nitrite (tri-iodide chemiluminescence assay); assay type: cell-based; conditions: with versus without hemopexin

oxygenated Hb (OxyHb), sequence (P69905 2-142 limits assumed): as the sequence (P69905 2-142 limits assumed) above
oxygenated Hb (OxyHb), sequence (P68871 2-147 limits assumed): as the sequence (P68871 2-147 limits assumed) above

Q: Which rate constant [1] does the source give for `[N]=O` [NO, Nitric oxide] here?
A: Its rate constant is 6-8×10^7 M^−1s^−1.

Q: Which “platelet activation with RBCs treated with nitrosating agent, then washed” value ([2]; RBCs treated with SNAP, excess removed) does the source give for `CC(=O)N[C@H](C(=O)O)C(C)(C)SN=O` (racemic) [SNAP, S-Nitroso-N-acetylpenicillamine] here?
A: The value was “caused the RBCs to inhibit platelet activation”.

Q: And the “effect of light illumination on platelet activation with treated RBCs” value ([2]; RBCs treated, washed, then illuminated)?
A: Its value is “Light potentiates effects”.

Q: For `O=NO` [nitrite], which platelet adhesion [3] is on record?
A: Its platelet adhesion is “decreases platelet adhesion”.

Q: And the “rate of clot growth” value [4]?
A: The value was “decreasing the rate of clot growth”.

Q: And the “time to initial fibrin formation (R-time)” value [4]?
A: Its value is “increasing the time to initial fibrin formation”.

Q: And the “survival time of treated system longer than control circuit, average” value ([5]; combined nitrite and red light)?
A: The value was 220%.

Q: And the “decrease in the number of platelets, first to last sample” value ([5]; treated system (nitrite plus light), complete blood count, averaged)?
A: The value was 32%.

Q: What about the “pressure in the circuit” value ([5]; whole blood, calcium infused, nitrite plus far-red light from the 1.5 hour mark) of the same molecule?
A: Its value is “decreased to less than that of the control circuit”.

Q: And the “lifetime of the nitrite” value [6]?
A: The value was “about 100 seconds”.

Q: What about the reduction of clotting ([7]; combination of nitrite and light, all assays) of the same molecule?
A: The reduction of clotting was “universally effective in reducing clotting”.

Q: What about the reduction of clotting ([7]; monotherapy) of the same molecule?
A: The reduction of clotting was “mixed effects”.

Q: And the bimolecular rate constant [8]?
A: Its bimolecular rate constant is 1 M⁻¹ s⁻¹.

Q: What about the “effect on platelet activation” value ([2]; RBCs present, nitrite alone) of the same molecule?
A: The value was “decreases platelet activation”.

Q: And the “inhibition of platelet activation” value ([2]; RBCs present, nitrite plus far-red light 660 nm, ~5 min)?
A: The value was “dramatically enhances nitrite bioactivation by RBCs”.

Q: And the “effect on platelet activation” value ([2]; nitrite added to activated platelets, absence of RBCs)?
A: Its value is “has no effect”.

Q: With `O=C(O)c1cc(SSc2ccc([N+](=O)[O-])c(C(=O)O)c2)ccc1[N+](=O)[O-]` [DTNB] as the molecule, how does the “effect on nitrite-mediated inhibition of platelet activation by RBCs” value [2] read?
A: Its value is “abrogates inhibition of platelets”.

Q: Which “effect on platelet inhibition by SNAP-treated RBCs” value ([2]; pre-treatment with thiol binding agent) does the source give for `CCN1C(=O)C=CC1=O` [NEM, N-ethyl maleimide] here?
A: Its value is “abrogated”.

Q: For `CC1(C)N([O])C(c2ccc(C(=O)O)cc2)=[N+]([O-])C1(C)C` [CPTIO], which “effect on nitrite-mediated inhibition of platelet activation by RBCs” value [2] is on record?
A: Its value is “abrogated”.

B1: hemopexin: a plasma protein with extremely high affinity for free heme (protein, UniProt P02790 24-462, looked up)
Hemopexin: TPLPPTSAHGNVAEGETKPDPDVTERCSDGWSFDATTLDDNGTMLFFKGEFVWKSHKWDRELISERWKNFPSPVDAAFRQGHNSVFLIKGDKVWVYPPEKKEKGYPKLLQDEFPGIPSPLDAAVECHRGECQAEGVLFFQGDREWFWDLATGTMKERSWPAVGNCSSALRWLGRYYCFQGNQFLRFDPVRGEVPPRYPRDVRDYFMPCPGRGHGHRNGTGHGNSTHHGPEYMRCSPHLVLSALTSDNHGATYAFSGTHYWRLDTSRDGWHSWPIAHQWPQGPSAVDAAFSWEEKLYLVQGTQVYVFLTKGGYTLVSGYPKRLEKEVGTPHGIILDSVDAAFICPGSSRLHIMAGRRLWWLDLKSGAQATWTELPWPHEKVDGALCMEKSLGPNSCSANGPGLYLIHGPNLYCYSDVEKLNAAKALPQPQNVTSLLGCTH
Q: For B1, which “NO species in the supernatant” value [9] is on record?
A: The value was “significantly greater NO”.
